What was measured:
[1] = molecular target: T1, Gastrin/cholecystokinin type B receptor (Rattus norvegicus, UniProt P30553); experiment: Compound was tested for binding affinity against Cholecystokinin type B receptor in rat cortical membranes using L-365260 as the radioligand.; type: cell membranes
T1 sequence (P30553 whole entry): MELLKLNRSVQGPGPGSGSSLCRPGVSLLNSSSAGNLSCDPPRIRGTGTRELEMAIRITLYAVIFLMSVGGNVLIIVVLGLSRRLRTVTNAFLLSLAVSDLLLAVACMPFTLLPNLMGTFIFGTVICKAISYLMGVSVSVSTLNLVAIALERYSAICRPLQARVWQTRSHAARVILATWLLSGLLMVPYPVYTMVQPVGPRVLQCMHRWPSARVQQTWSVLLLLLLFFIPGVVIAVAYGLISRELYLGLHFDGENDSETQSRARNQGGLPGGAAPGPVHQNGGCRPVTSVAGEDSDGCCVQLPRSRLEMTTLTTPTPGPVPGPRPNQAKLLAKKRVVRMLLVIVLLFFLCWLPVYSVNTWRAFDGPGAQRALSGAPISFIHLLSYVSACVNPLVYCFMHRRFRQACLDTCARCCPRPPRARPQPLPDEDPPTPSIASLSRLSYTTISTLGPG

Rattus norvegicus [2] = species on record: Rattus norvegicus; experiment: Bmax value was determined in rat cerebral cortical membranes
Rattus norvegicus [3] = species on record: Rattus norvegicus; experiment: pKD value in rat cerebral cortical membranes; type: functional

Compound: O=C(O)c1cc(NC(=O)[C@H](Cc2ccccc2)NC(=O)c2cc3cc[nH]c3cc2C(=O)NCC23CC4CC(CC(C4)C2)C3)cc(C(=O)O)c1
- Ki [1]: 23.4 nM
- Bmax (Rattus norvegicus [2]): 3.61 pM/g
- pKD (Rattus norvegicus [3]): 9.48

— ChEMBL document CHEMBL1129719, “The synthesis of a radioligand with high potency and selectivity for CCKB/ gastrin receptors” (Bioorg Med Chem Lett, 1996)
